Assay results from ChEMBL document CHEMBL1201862, “PubChem BioAssay data set” (2004).
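Test compounds were applied to cells in 96-well plates for 48 hours at 5 doses. Here, GI50 denotes the concentration required for 50% inhibition of growth.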 Activity calls are given as the source filed them. Cut-off read from the data, not from the text of the source: active = GI50 up to about 1.1 µM and inactive = higher.

Legend:
Test in all cases: NCI anticancer screen, dose series, 48 h
MDA-N = system: MDA-N
MDA-MB-435 = system: MDA-MB-435
T47D = system: T47D
MOLT-4 = system: MOLT-4
NCI-H460 = system: NCI-H460
SF-539 = system: SF-539
PC-3 = system: PC-3
TK-10 = system: TK-10
UO-31 = system: UO-31
SF-295 = system: SF-295
OVCAR-3 = system: OVCAR-3
SW-620 = system: SW-620
SN12C = system: SN12C
UACC-257 = system: UACC-257
LOX IMVI = system: LOX IMVI
MDA-MB-231 = system: MDA-MB-231
RPMI-8226 = system: RPMI-8226
SR = system: SR
OVCAR-4 = system: OVCAR-4
HL-60 = system: HL-60

| SMILES | GI50 (MDA-N) | GI50 (MDA-MB-435) | GI50 (T47D) | GI50 (MOLT-4) | GI50 (NCI-H460) | GI50 (SF-539) | GI50 (PC-3) | GI50 (TK-10) | GI50 (UO-31) | GI50 (SF-295) | GI50 (OVCAR-3) | GI50 (SW-620) | GI50 (SN12C) | GI50 (UACC-257) | GI50 (LOX IMVI) | GI50 (MDA-MB-231) | GI50 (RPMI-8226) | GI50 (SR) | GI50 (OVCAR-4) | GI50 (HL-60) |
| --- | --- | --- | --- | --- | --- | --- | --- | --- | --- | --- | --- | --- | --- | --- | --- | --- | --- | --- | --- | --- |
| CC1(C)CNCC(C)(OCc2ccccc2)C(=O)NC(C)(C)CNCC(C)(OCc2ccccc2)C(=O)N1 (centres undefined) | > 10 µM (inactive) | > 10 µM (inactive) | > 10 µM (inactive) | > 10 µM (inactive) | > 10 µM (inactive) | > 10 µM (inactive) | > 10 µM (inactive) | > 10 µM (inactive) | 6 µM (inactive) | > 10 µM (inactive) | > 10 µM (inactive) | > 10 µM (inactive) | > 10 µM (inactive) | > 10 µM (inactive) | > 10 µM (inactive) | > 10 µM (inactive) | – | – | – | – |
| COc1cc(/C=N/c2ccccn2)cc(OC)c1OC | 28.3 µM (inactive) | 24.5 µM (inactive) | > 100 µM (inactive) | > 100 µM (inactive) | > 100 µM (inactive) | > 100 µM (inactive) | – | – | > 100 µM (inactive) | > 76.9 µM (inactive) | > 100 µM (inactive) | > 100 µM (inactive) | > 100 µM (inactive) | > 100 µM (inactive) | > 100 µM (inactive) | > 100 µM (inactive) | 65 µM (inactive) | > 63.2 µM (inactive) | > 100 µM (inactive) | 1.87 µM (inactive) |
| COc1cc2c(cc1OC)C(C)N(C)c1c-2c(OC(C)=O)cc2cc(OC)c(OC)cc12 (centres undefined) | 14.6 µM (inactive) | 15.8 µM (inactive) | 8.24 µM (inactive) | 5.69 µM (inactive) | 6.38 µM (inactive) | 16 µM (inactive) | 14.7 µM (inactive) | 23.2 µM (inactive) | 12.1 µM (inactive) | 11.8 µM (inactive) | 4.29 µM (inactive) | 23.7 µM (inactive) | 9.93 µM (inactive) | 11.1 µM (inactive) | 13.2 µM (inactive) | 5.92 µM (inactive) | 8.69 µM (inactive) | – | 5.61 µM (inactive) | – |
| CO[C@@](c1ccccc1)(c1nc(C#N)c(N)o1)C(F)(F)F | > 100 µM (inactive) | > 100 µM (inactive) | > 100 µM (inactive) | 82.2 µM (inactive) | – | > 100 µM (inactive) | > 100 µM (inactive) | > 100 µM (inactive) | 68.1 µM (inactive) | > 100 µM (inactive) | > 100 µM (inactive) | 86.5 µM (inactive) | > 100 µM (inactive) | 85.5 µM (inactive) | > 100 µM (inactive) | > 100 µM (inactive) | 36.3 µM (inactive) | – | > 100 µM (inactive) | – |
| COC(=O)c1c(O)c2c(c3c1OC(C)(C)CC3)OC(C)(C)CC2 | 22.1 µM (inactive) | – | 21.8 µM (inactive) | 22.7 µM (inactive) | 22.3 µM (inactive) | 18 µM (inactive) | 17 µM (inactive) | > 10 µM (inactive) | 18.8 µM (inactive) | 17 µM (inactive) | 20 µM (inactive) | 17.5 µM (inactive) | 16 µM (inactive) | 20.4 µM (inactive) | – | 13.7 µM (inactive) | – | – | 32.2 µM (inactive) | 15.1 µM (inactive) |
| CCOC(=O)C(=[N+]=[N-])C(=O)CN1C(=O)c2ccccc2C1=O | > 100 µM (inactive) | > 100 µM (inactive) | > 100 µM (inactive) | > 100 µM (inactive) | > 100 µM (inactive) | > 100 µM (inactive) | > 100 µM (inactive) | > 100 µM (inactive) | > 100 µM (inactive) | > 100 µM (inactive) | > 100 µM (inactive) | > 100 µM (inactive) | > 100 µM (inactive) | > 100 µM (inactive) | – | > 100 µM (inactive) | – | – | > 100 µM (inactive) | – |
| O=C(/C=C1\N=C(c2ccccc2)N(c2nc3ccc(Sc4ccccc4)cc3[nH]2)C1=O)/C=C/c1ccccc1 | 14.9 µM (inactive) | 15.7 µM (inactive) | 22.6 µM (inactive) | 33.3 µM (inactive) | 30.2 µM (inactive) | – | 30.5 µM (inactive) | 29.2 µM (inactive) | 53.3 µM (inactive) | 28.2 µM (inactive) | 29.6 µM (inactive) | 33.9 µM (inactive) | 40 µM (inactive) | 30.8 µM (inactive) | 17.4 µM (inactive) | 22.4 µM (inactive) | 22.6 µM (inactive) | – | 39.8 µM (inactive) | 20.8 µM (inactive) |
| COc1c(OC)c(OC)c(-c2cc(=O)c3c(OC)c(OC)c(OC)c(OC)c3o2)c(OC)c1OC | 38 µM (inactive) | 34.5 µM (inactive) | 9.14 µM (inactive) | 32.7 µM (inactive) | 31.3 µM (inactive) | 48.9 µM (inactive) | – | 29.3 µM (inactive) | 29.2 µM (inactive) | 40.2 µM (inactive) | 16.3 µM (inactive) | 30 µM (inactive) | 50.5 µM (inactive) | 34.5 µM (inactive) | 30.9 µM (inactive) | 29.9 µM (inactive) | 60.8 µM (inactive) | > 100 µM (inactive) | 18.1 µM (inactive) | 37.2 µM (inactive) |
| CC(C)(C)OC(=O)C(C#N)C(=O)c1ccc(C(=O)O)[nH]1 (centres undefined) | 40.4 µM (inactive) | 32.3 µM (inactive) | 34.6 µM (inactive) | 33.6 µM (inactive) | 29.7 µM (inactive) | 51.6 µM (inactive) | 33.7 µM (inactive) | 29.7 µM (inactive) | 30.8 µM (inactive) | 33.5 µM (inactive) | 29.3 µM (inactive) | 34.9 µM (inactive) | 43.1 µM (inactive) | 30.2 µM (inactive) | 27.7 µM (inactive) | 29.4 µM (inactive) | 22.8 µM (inactive) | – | 19.5 µM (inactive) | 21.7 µM (inactive) |
| CC(=N/NC(=S)N(C)C)/C(=N\NC(=S)N(C)C)c1ccccc1 | 2.11 µM (inactive) | 1.87 µM (inactive) | 1.65 µM (inactive) | 7.16 µM (inactive) | 1 µM (active) | 3.66 µM (inactive) | 2 µM (inactive) | 1.59 µM (inactive) | 2.11 µM (inactive) | 2.08 µM (inactive) | 1.76 µM (inactive) | 1.93 µM (inactive) | 1.47 µM (inactive) | 1.98 µM (inactive) | 3.08 µM (inactive) | 3.1 µM (inactive) | 2.74 µM (inactive) | – | 2.02 µM (inactive) | – |
| N#CC(c1cc(Cl)ncn1)c1nc2ccccc2s1 (centres undefined) | 6.03 µM (inactive) | 18.1 µM (inactive) | 2.67 µM (inactive) | 3.42 µM (inactive) | 4.27 µM (inactive) | 5.42 µM (inactive) | – | 4.81 µM (inactive) | 16.6 µM (inactive) | 15.6 µM (inactive) | 7.01 µM (inactive) | 4.62 µM (inactive) | 2.61 µM (inactive) | 10.5 µM (inactive) | 4.72 µM (inactive) | 11.1 µM (inactive) | 2.49 µM (inactive) | – | 6.46 µM (inactive) | – |
| OCCSCc1cc(Cl)cc(Cl)c1O | > 100 µM (inactive) | > 100 µM (inactive) | > 100 µM (inactive) | > 100 µM (inactive) | > 100 µM (inactive) | – | > 100 µM (inactive) | > 100 µM (inactive) | > 100 µM (inactive) | > 100 µM (inactive) | > 100 µM (inactive) | > 100 µM (inactive) | > 100 µM (inactive) | > 100 µM (inactive) | > 100 µM (inactive) | > 100 µM (inactive) | > 100 µM (inactive) | – | > 100 µM (inactive) | – |
